Measured values reported in patent US20040191842A1, “Chemopreventive and therapeutic aspects of polyphenolic compositions and assays” (Medical College of Georgia Research Institute, Inc., priority 2002, published 2004).

Experiments:
OSC2 cells = test: Cell growth assay, OSC2 cells; assay type: cell-based, human; conditions: 50 μM EGCG, day four
Experimental: Cell growth assay. Cells (2×10^5) were seeded in each T25 culture flask with 5 ml DMEM/F12 medium for 48 hours. The treatments were started with 50 μM EGCG for 24 hours, 48 hours and 96 hours. At each time point, the cell numbers were counted using a hemacytometer with the presence of Trypan blue.

OSC-2 cells = test: MTT assay (mitochondrial SDH activity), OSC2 (OSC-2) cells; conditions: increasing EGCG and 0.2 mg/ml GTPPs, 24 hour
Experimental: This method detects the activity of mitochondrial succinate dehydrogenase (SDH). In a 96-well plate, 1.5×10^4 cells were seeded in each well. After variety of treatments, 100 μl of 2% MTT was added to each well and the plate was incubated at 37° C. for 30 minutes. 100 μl of 0.2 M Tris (pH 7.7) with 4% formalin was added to each well. After incubation at room temperature for 5 minutes, liquid was removed and the wells were allowed to dry. Each well was rinsed with 200 μl water followed by addition of 100 μl DMSO (6.35% 0.1 N NaOH in DMSO) to each well. The coloration was measured by a Thermo MAX microplate reader (Molecular Devices Corp. Sunnyvale, Calif. using wavelengths of 562 nm. Experiments were repeated three times with triplicate samples for each experiment.
This method directly detects the activity of mitochondrial succinate dehydrogenase (SDH). Changes in SDH activity is a measurement of cell viability when stress is introduced in cell culture through chemical or physical means. Cells (1.5×10^4 cells/well) were seeded in a 96-well microplate and treated with the indicated doses of EGCG for 24 hours. After the treatment, the cells in each well were washed with 200 μl of phosphate-buffered saline (PBS), incubated with 100 μl of 2% MTT in a solution of 0.05 M Tris, 0.5 mM MgCl2, 2.5 mM CoCl2, and 0.25 M disodiumn succinate as substrate (Sigma) at 37° C. for 30 minutes. Cells were fixed in situ by the addition of 100 μl of 4% formalin in 0.2 M Tris (pH 7.7), and after a 5 minute incubation at room temperature liquid was removed and the wells were allowed to dry. Each well was rinsed with 200 μl water and cells were solubilized by the addition of 100 μl of 6.35% 0.1 N NaOH in DMSO. The colored formazan product was measured by a Thermo MAX micro plate reader (Molecular Devices Corp., Sunnyvale, Calif.) at a wavelength of 562 nm. […]
This method directly detects the activity of mitochondrial succinate dehydrogenase (SDH). […] Solubilized colored formazan product was measured using a Thermo MAX microplate reader (Molecular Devices Corp., Sunnyvale, Calif.) at a wavelength of 562 nm.

OSC-GFP cells and NHEK = test: Co-culture of OSC-GFP cells and NHEK, double fluorescence; assay type: cell-based, human; conditions: overlay co-culture, 100 μM EGCG, 24 hour
Experimental: Co-culture and GTPP treatment. Various patterns of co-culture of the tumor/normal cells were achieved by different designs. Examples include:
1. Adjacent co-culture design. OSC-GFP cells (5×10^4) were seeded in the center of a culturing device (8-well chamber-slide, Nagle Nunc International, Naperville, Ill.) through a cloning cylinder (Fisher Scientific/Scienceware, Tapered Design, 4.7×8 mm) in DMEM/F12 medium and allowed to attach for 24 hours. NHEK (10^5) in KGM-2 were then seeded in the area next to the cylinder. After 24 hours, the cylinder was removed and the medium was replaced by a 50/50 mix of KGM-2 and DMEM/F12 and the cells were allowed to grow for another 24 hours prior to treatment (FIG. 21, right).
2. Overlay design, which could be adapted for high throughput screening in 96 well plate. […]
4. Tumor cell migration was monitored by co-culturing OSC-GFP and NHEK in wells of a 24 well plate as indicated in “1”, except the NHEK cell number was doubled. After treatment, tumor cell migration into NHEK territory was recorded by fluorescent microscopy at selected time points. […]
Immunofluorescence and photography. […] Fluorescence was generated by a ZEISS AttoArc 2 source. […]
The total fluorescence intensities of images were quantified using the BIOQUANT NOVA PRIME 6.0 software (Bioquant Co., Nashville, Tenn.). […]

caspase 14 = test: Immunoblot of caspase 14 protein in NHEK; assay type: cell-based, human
Experimental: To identify additional factors those suppress EGCG -induced apoptosis and facilitate cell differentiation in NHEK, exponentially growing NHEK (Cambrex, Baltimore, Md.) were exposed to 100 μM EGCG for 0, 2, 6 and 24 hours, prior to total RNA isolation using the Qiagen RNeasy mini kit (Valencia, Calif.), which was followed by RT-PCR labeling and hybridization with the Human Apoptosis Macroarray membrane (Sigma-Genosys, The Woodlands, Tex.). Total cell lysates also were collected following a variety of EGCG treatments. The protein levels for caspase 14 and p21 were determined by immuno-blotting using antibodies specific for caspase 14 and p21 (Santa Cruz Biotechnology, Santa Cruz, Calif.).

How did the “cell number compared to controls” value (OSC2 cells) turn out when O=C(O[C@@H]1Cc2c(O)cc(O)cc2O[C@@H]1c1cc(O)c(O)c(O)c1)c1cc(O)c(O)c(O)c1 [EGCG, (−)-epigallocatechin-3-gallate] was run?
The value was 50%.

And the SDH activities (OSC-2 cells)?
The SDH activities was “decreased”.

What about the “ratio of fluorescence intensities of rhodamine (red)/FITC (green)” value (OSC-GFP cells and NHEK) of the same compound?
Its value is 1.23.

What about the “production of immunoreactive caspase 14 increased” value (caspase 14; 30 μM EGCG (Example 10)) of the same compound?
The value was 5 fold.

What about the “increase in caspase 14 protein” value (caspase 14; 30 μM EGCG, 48 hours) of the same compound?
Its value is 26 fold.

What about the “increase in caspase 14 protein” value (caspase 14; 100 μM EGCG, 24 hours) of the same compound?
Its value is 2 fold.

What about the “increase in caspase 14 protein” value (caspase 14; 100 μM EGCG, 48 hours) of the same compound?
The value was 5 folds.

What about the “increase in caspase 14 protein” value (caspase 14; EGCG at or below 50 μM, 24 hours) of the same compound?
Its value is > 5 fold.
